Test results: ChEMBL document CHEMBL3046161, “Synthesis of potential antitubercular and antimicrobial s-triazine-based scaffolds via Suzuki cross-coupling reaction” (2013)
Values after ≈ are worked out from the molar mass of the structure shown.

Experiments:
Assay type in all cases: functional
[1] = system: Salmonella typhi; experiment: Antibacterial activity against Salmonella enterica subsp. enterica serovar Typhi MTCC 733 assessed as growth inhibition at 3.12 to 50 ug/mL after 24 hr by agar disk diffusion method
[2] = system: Klebsiella pneumoniae; experiment: Antibacterial activity against Klebsiella pneumoniae MTCC 109 assessed as growth inhibition at 3.12 to 50 ug/mL after 24 hr by agar disk diffusion method
[3] = system: Klebsiella pneumoniae; experiment: Antibacterial activity against Klebsiella pneumoniae MTCC 109 assessed as growth inhibition after 24 hr by agar streak dilution method; conditions: MTCC 109, 24 h
[4] = system: Salmonella typhi; experiment: Antibacterial activity against Salmonella enterica subsp. enterica serovar Typhi MTCC 733 assessed as growth inhibition after 24 hr by agar streak dilution method; conditions: MTCC 733, 24 h
[5] = system: Pseudomonas aeruginosa; experiment: Antibacterial activity against Pseudomonas aeruginosa MTCC 741 assessed as growth inhibition after 24 hr by agar streak dilution method; conditions: MTCC 741, 24 h
[6] = system: Escherichia coli; experiment: Antibacterial activity against Escherichia coli MTCC 739 assessed as growth inhibition after 24 hr by agar streak dilution method; conditions: MTCC 739, 24 h
[7] = system: Bacillus cereus; experiment: Antibacterial activity against Bacillus cereus MTCC 430 assessed as growth inhibition after 24 hr by agar streak dilution method; conditions: MTCC 430, 24 h
[8] = system: Staphylococcus aureus; experiment: Antibacterial activity against Staphylococcus aureus MTCC 96 assessed as growth inhibition after 24 hr by agar streak dilution method; conditions: MTCC 96, 24 h
[9] = system: Mycobacterium tuberculosis; experiment: Antimycobacterial activity against Mycobacterium tuberculosis H37Rv assessed as growth inhibition at MIC after 12 to 28 days by Lowenstein and Jensen agar dilution method
[10] = system: Mycobacterium tuberculosis; experiment: Antimycobacterial activity against Mycobacterium tuberculosis H37Rv assessed as growth inhibition after 12 to 28 days by Lowenstein and Jensen agar dilution method
[11] = system: Mycobacterium tuberculosis; experiment: Antimycobacterial activity against Mycobacterium tuberculosis H37Rv assessed as growth inhibition at MIC measured within 10 days by BACTEC MGIT method
[12] = system: Mycobacterium tuberculosis; experiment: Antimycobacterial activity against Mycobacterium tuberculosis H37Rv assessed as growth inhibition measured within 10 days by BACTEC MGIT method; conditions: 240 h
[13] = system: Candida albicans; experiment: Antifungal activity against Candida albicans MTCC 183 assessed as growth inhibition at 3.12 to 50 ug/mL after 24 hr by agar disk diffusion method
[14] = system: Aspergillus clavatus; experiment: Antifungal activity against Aspergillus clavatus MTCC 1323 assessed as growth inhibition at 3.12 to 50 ug/mL after 24 hr by agar disk diffusion method
[15] = system: Aspergillus fumigatus; experiment: Antifungal activity against Aspergillus fumigatus MTCC 343 assessed as growth inhibition at 3.12 to 50 ug/mL after 24 hr by agar disk diffusion method
[16] = system: Aspergillus niger; experiment: Antifungal activity against Aspergillus niger MTCC 282 assessed as growth inhibition at 3.12 to 50 ug/mL after 24 hr by agar disk diffusion method
[17] = system: Candida albicans; experiment: Antifungal activity against Candida albicans MTCC 183 assessed as growth inhibition after 48 hr by agar streak dilution method; conditions: MTCC 183, 48 h
[18] = system: Aspergillus clavatus; experiment: Antifungal activity against Aspergillus clavatus MTCC 1323 assessed as growth inhibition after 48 hr by agar streak dilution method; conditions: MTCC 1323, 48 h
[19] = system: Aspergillus fumigatus; experiment: Antifungal activity against Aspergillus fumigatus MTCC 343 assessed as growth inhibition after 48 hr by agar streak dilution method; conditions: MTCC 343, 48 h
[20] = system: Aspergillus niger; experiment: Antifungal activity against Aspergillus niger MTCC 282 assessed as growth inhibition after 48 hr by agar streak dilution method; conditions: MTCC 282, 48 h
[21] = system: Shigella flexneri; experiment: Antibacterial activity against Shigella flexneri MTCC 1457 assessed as growth inhibition at 3.12 to 50 ug/mL after 24 hr by agar disk diffusion method
[22] = system: Proteus vulgaris; experiment: Antibacterial activity against Proteus vulgaris MTCC 1771 assessed as growth inhibition at 3.12 to 50 ug/mL after 24 hr by agar disk diffusion method
[23] = system: Pseudomonas aeruginosa; experiment: Antibacterial activity against Pseudomonas aeruginosa MTCC 741 assessed as growth inhibition at 3.12 to 50 ug/mL after 24 hr by agar disk diffusion method
[24] = system: Escherichia coli; experiment: Antibacterial activity against Escherichia coli MTCC 739 assessed as growth inhibition at 3.12 to 50 ug/mL after 24 hr by agar disk diffusion method
[25] = system: Bacillus cereus; experiment: Antibacterial activity against Bacillus cereus MTCC 430 assessed as growth inhibition at 3.12 to 50 ug/mL after 24 hr by agar disk diffusion method
[26] = system: Staphylococcus aureus; experiment: Antibacterial activity against Staphylococcus aureus MTCC 96 assessed as growth inhibition at 3.12 to 50 ug/mL after 24 hr by agar disk diffusion method
[27] = system: Shigella flexneri; experiment: Antibacterial activity against Shigella flexneri MTCC 1457 assessed as growth inhibition after 24 hr by agar streak dilution method; conditions: MTCC 1457, 24 h
[28] = system: Proteus vulgaris; experiment: Antibacterial activity against Proteus vulgaris MTCC 1771 assessed as growth inhibition after 24 hr by agar streak dilution method; conditions: MTCC 1771, 24 h

SMILES: CCOc1ccc2nc(NC(=O)CNc3ccc(-c4nc(N5CC(C)CC(C)C5)nc(N5CC(C)CC(C)C5)n4)cc3)sc2c1 (stereo not drawn)
- inhibition zone (IZ) [1]: 19 mm
- inhibition zone (IZ) [2]: 24 mm
- MIC [3]: 50 µg/mL (≈ 79.5 µM)
- MIC [4]: 50 µg/mL (≈ 79.5 µM)
- MIC [5]: 12.5 µg/mL (≈ 19.9 µM)
- MIC [6]: 12.5 µg/mL (≈ 19.9 µM)
- MIC [7]: 25 µg/mL (≈ 39.8 µM)
- MIC [8]: 6.25 µg/mL (≈ 9.94 µM)
- growth inhibition (GI) [9]: 99%
- MIC [10]: 6.25 µg/mL (≈ 9.94 µM)
- growth inhibition (GI) [11]: 99%
- MIC [12]: 6.25 µg/mL (≈ 9.94 µM)
- inhibition zone (IZ) [13]: 25 mm
- inhibition zone (IZ) [14]: 16 mm
- inhibition zone (IZ) [15]: 16 mm
- inhibition zone (IZ) [16]: 20 mm
- MIC [17]: 12.5 µg/mL (≈ 19.9 µM)
- MIC [18]: 50 µg/mL (≈ 79.5 µM)
- MIC [19]: 50 µg/mL (≈ 79.5 µM)
- MIC [20]: 25 µg/mL (≈ 39.8 µM)
- inhibition zone (IZ) [21]: 17 mm
- inhibition zone (IZ) [22]: 26 mm
- inhibition zone (IZ) [23]: 23 mm
- inhibition zone (IZ) [24]: 23 mm
- inhibition zone (IZ) [25]: 24 mm
- inhibition zone (IZ) [26]: 23 mm
- MIC [27]: 50 µg/mL (≈ 79.5 µM)
- MIC [28]: 12.5 µg/mL (≈ 19.9 µM)

SMILES: CC1CC(C)CN(c2nc(-c3ccc(NCC(=O)Nc4nc5ccc(F)cc5s4)cc3)nc(N3CC(C)CC(C)C3)n2)C1 (stereo not drawn)
- inhibition zone (IZ) [1]: 23 mm
- inhibition zone (IZ) [2]: 25 mm
- MIC [3]: 25 µg/mL (≈ 41.5 µM)
- MIC [4]: 12.5 µg/mL (≈ 20.7 µM)
- MIC [5]: 25 µg/mL (≈ 41.5 µM)
- MIC [6]: 25 µg/mL (≈ 41.5 µM)
- MIC [7]: 3.12 µg/mL (≈ 5.18 µM)
- MIC [8]: 3.12 µg/mL (≈ 5.18 µM)
- growth inhibition (GI) [9]: 99%
- MIC [10]: 3.12 µg/mL (≈ 5.18 µM)
- growth inhibition (GI) [11]: 99%
- MIC [12]: 6.25 µg/mL (≈ 10.4 µM)
- inhibition zone (IZ) [13]: 23 mm
- inhibition zone (IZ) [14]: 25 mm
- inhibition zone (IZ) [15]: 25 mm
- inhibition zone (IZ) [16]: 22 mm
- MIC [17]: 50 µg/mL (≈ 82.9 µM)
- MIC [18]: 50 µg/mL (≈ 82.9 µM)
- MIC [19]: 25 µg/mL (≈ 41.5 µM)
- MIC [20]: 12.5 µg/mL (≈ 20.7 µM)
- inhibition zone (IZ) [21]: 26 mm
- inhibition zone (IZ) [22]: 25 mm
- inhibition zone (IZ) [23]: 25 mm
- inhibition zone (IZ) [24]: 20 mm
- inhibition zone (IZ) [25]: 28 mm
- inhibition zone (IZ) [26]: 25 mm
- MIC [27]: 6.25 µg/mL (≈ 10.4 µM)
- MIC [28]: 25 µg/mL (≈ 41.5 µM)

SMILES: CC1CC(C)CN(c2nc(-c3ccc(NCC(=O)Nc4ccccc4)cc3)nc(N3CC(C)CC(C)C3)n2)C1 (stereo not drawn)
- inhibition zone (IZ) [1]: <10 mm
- inhibition zone (IZ) [2]: <10 mm
- MIC [3]: 50 µg/mL (≈ 94.7 µM)
- MIC [4]: 50 µg/mL (≈ 94.7 µM)
- MIC [5]: 50 µg/mL (≈ 94.7 µM)
- MIC [6]: 50 µg/mL (≈ 94.7 µM)
- MIC [7]: 50 µg/mL (≈ 94.7 µM)
- MIC [8]: 50 µg/mL (≈ 94.7 µM)
- growth inhibition (GI) [9]: 95%
- MIC [10]: 250 µg/mL (≈ 474 µM)
- MIC [12]: > 6.25 µg/mL
- inhibition zone (IZ) [13]: <10 mm
- inhibition zone (IZ) [14]: <10 mm
- inhibition zone (IZ) [15]: <10 mm
- inhibition zone (IZ) [16]: <10 mm
- MIC [17]: > 50 µg/mL
- MIC [18]: > 50 µg/mL
- MIC [19]: 50 µg/mL (≈ 94.7 µM)
- MIC [20]: 50 µg/mL (≈ 94.7 µM)
- inhibition zone (IZ) [21]: <10 mm
- inhibition zone (IZ) [22]: 14 mm
- inhibition zone (IZ) [23]: 19 mm
- inhibition zone (IZ) [24]: <10 mm
- inhibition zone (IZ) [25]: 12 mm
- inhibition zone (IZ) [26]: 11 mm
- MIC [27]: 50 µg/mL (≈ 94.7 µM)
- MIC [28]: 50 µg/mL (≈ 94.7 µM)

SMILES: CC1CC(C)CN(c2nc(-c3ccc(NCC(=O)Nc4ccc(Cl)cc4)cc3)nc(N3CC(C)CC(C)C3)n2)C1 (stereo not drawn)
- inhibition zone (IZ) [1]: 18 mm
- inhibition zone (IZ) [2]: 21 mm
- MIC [3]: 50 µg/mL (≈ 88.9 µM)
- MIC [4]: 50 µg/mL (≈ 88.9 µM)
- MIC [5]: 25 µg/mL (≈ 44.5 µM)
- MIC [6]: 50 µg/mL (≈ 88.9 µM)
- MIC [7]: 50 µg/mL (≈ 88.9 µM)
- MIC [8]: 25 µg/mL (≈ 44.5 µM)
- growth inhibition (GI) [9]: 98%
- MIC [10]: 25 µg/mL (≈ 44.5 µM)
- MIC [12]: > 6.25 µg/mL
- inhibition zone (IZ) [13]: <10 mm
- inhibition zone (IZ) [14]: <10 mm
- inhibition zone (IZ) [15]: 14 mm
- inhibition zone (IZ) [16]: <10 mm
- MIC [17]: > 50 µg/mL
- MIC [18]: > 50 µg/mL
- MIC [19]: 50 µg/mL (≈ 88.9 µM)
- MIC [20]: 50 µg/mL (≈ 88.9 µM)
- inhibition zone (IZ) [21]: 24 mm
- inhibition zone (IZ) [22]: 21 mm
- inhibition zone (IZ) [23]: 26 mm
- inhibition zone (IZ) [24]: 12 mm
- inhibition zone (IZ) [25]: 13 mm
- inhibition zone (IZ) [26]: 18 mm
- MIC [27]: 12.5 µg/mL (≈ 22.2 µM)
- MIC [28]: 50 µg/mL (≈ 88.9 µM)

SMILES: CC1CC(C)CN(c2nc(-c3ccc(NCC(=O)Nc4ccc(Br)cc4)cc3)nc(N3CC(C)CC(C)C3)n2)C1 (stereo not drawn)
- inhibition zone (IZ) [1]: 20 mm
- inhibition zone (IZ) [2]: 24 mm
- MIC [3]: 25 µg/mL (≈ 41.2 µM)
- MIC [4]: 25 µg/mL (≈ 41.2 µM)
- MIC [5]: 12.5 µg/mL (≈ 20.6 µM)
- MIC [6]: 25 µg/mL (≈ 41.2 µM)
- MIC [7]: 6.25 µg/mL (≈ 10.3 µM)
- MIC [8]: 3.12 µg/mL (≈ 5.14 µM)
- growth inhibition (GI) [9]: 99%
- MIC [10]: 3.12 µg/mL (≈ 5.14 µM)
- growth inhibition (GI) [11]: 99%
- MIC [12]: 6.25 µg/mL (≈ 10.3 µM)
- inhibition zone (IZ) [13]: 13 mm
- inhibition zone (IZ) [14]: 25 mm
- inhibition zone (IZ) [15]: 23 mm
- inhibition zone (IZ) [16]: 12 mm
- MIC [17]: 50 µg/mL (≈ 82.4 µM)
- MIC [18]: 50 µg/mL (≈ 82.4 µM)
- MIC [19]: 50 µg/mL (≈ 82.4 µM)
- MIC [20]: 50 µg/mL (≈ 82.4 µM)
- inhibition zone (IZ) [21]: 22 mm
- inhibition zone (IZ) [22]: 13 mm
- inhibition zone (IZ) [23]: 27 mm
- inhibition zone (IZ) [24]: 19 mm
- inhibition zone (IZ) [25]: 27 mm
- inhibition zone (IZ) [26]: 24 mm
- MIC [27]: 12.5 µg/mL (≈ 20.6 µM)
- MIC [28]: 50 µg/mL (≈ 82.4 µM)
